# Values quoted from earlier work as cited in US6555583B2, “Therapies for treating pulmonary diseases” (SmithKline Beecham Corporation, priority 1998, dated 2003).
# Conditions: rolipram developed as an antidepressant
structure (smiles),measurement,value
COc1ccc(C2CNC(=O)C2)cc1OC1CCCC1 (stereo not shown) [rolipram],side effects in clinical studies,psychotropic activity and produces gastrointestinal effects
